The text below walks through data of US20030220521A1, “Renal-selective prodrugs for control of renal sympathetic nerve activity in the treatment of hypertension” (G.D. Searle & Co., priority 1989, published 2003).

The structures appear in SMILES notation. Structures can show the parent of a compound that is named as a salt.

Series [1] concerns Sprague-Dawley rats. The experiment in a line: Assay I: acute in vivo effects on mean arterial pressure and renal blood flow, anesthetized rats. As to conditions: for MAP / RBF: 100 mg/kg i.v. Also noted: species or system rat. The procedure:
Sprague-Dawley rats were anesthetized with inactin (100 mg/kg, i.p.) and catheters were implanted into a carotid artery for measurement of mean arterial pressure (Gould model 3800 chart recorder; Statham pressure transducer model no. P23DB) and into a jugular vein for compound administrations (i.v.). In addition, a flow probe was implanted around the left renal artery for measurement of renal blood flow using Carolina Medical Electronics flow probes. Rats were allowed 60 min to stabilize before 10 minutes of control recordings of mean arterial pressure and renal blood flow were obtained. Control measurements were followed by intravenous injection of Ex. #3 conjugate and saline vehicle.

Series [2] concerns spontaneously hypertensive rats. The experiment in a line: Assay II: chronic i.v. infusion, mean arterial pressure in spontaneously hypertensive rats (Ex. #3). It is filed as in vivo, rat. As to conditions: SHR, continuous infusion 5 mg/hr. Here is the method: The Ex. #3 conjugate and saline vehicle were infused continuously for four days in spontaneously hypertensive rats. Mean arterial pressure was measured (Gould Chart Recorder, model 3800; Statham P23Db pressure transducer) via an indwelling femoral artery catheter between 10:00 a.m. and 2:00 p.m. each day. The Ex. #3 conjugate was infused at 5 mg/hr and the saline vehicle was infused at 300 μL,/hr. via a jugular vein catheter with a Harvard infusion pump.

Usually melting point stands for the temperature, or range, at which the solid turns liquid. As to `CCCCc1ccc(C(=O)NCCNC(=O)CCC(NC(C)=O)C(=O)O)nc1` (as salt: salt) [Ex. #861, N^2-acetyl-N-[2-[[(5-butyl-2-pyridinyl)carbonyl]amino]ethyl]-L-glutamine], the melting point lay within 156 to 158 °C.
On to `CC(=O)NC(CCC(=O)N[C@@](C)(Cc1ccc(O)cc1)C(=O)O)C(=O)O` (stereo partly drawn) [Ex. #3, N-[4-(acetylamino)-4-carboxy-1-oxobutyl]-α-methyl-L-tyrosine], for which the MAP is reported as 77 ± 5 mm Hg in series [1] (15 min after injection); 73 ± 4 mm Hg in series [1] (30 min after injection); 70 ± 2 mm Hg in series [1] (45 min after injection); 71 ± 6 mm Hg in series [1] (60 min after injection); 76 ± 5 mm Hg in series [1] (time after injection Zero min); 175 ± 5 mm Hg in series [2] (day 1). Further, the MAP in series [2] (day 2) worked out at 174 ± 5 mm Hg; in series [2] (day 3), 172 ± 2 mm Hg; in series [2] (day Zero), 164 ± 3 mm Hg. Besides, the RBF amounted to 7.1 ± 0.1 mL/min in series [1] (15 min after injection); 6.2 ± 0.3 mL/min in series [1] (30 min after injection); 5.9 ± 0.1 mL/min in series [1] (45 min after injection); 5.9 ± 0.1 mL/min in series [1] (60 min after injection); 4.8 ± 0.8 mL/min in series [1] (time after injection Zero min). Also, the “acute effect on mean arterial pressure (MAP)” value in series [1] (i.v. injection) was “no acute effects”. Further, the “acute effect on renal blood flow (RBF)” value in series [1] (i.v. injection) is recorded as “increased renal blood flow”.
